In patent US20130216585A1, “COMPOSITION AND METHODS FOR QUENCHING FREE RADICALS AND MODULATING INFLAMMATION” (FLAVITPURE, INC., priority 2012, published 2013):

Key:
peroxyl radical = assay: Cell-based Antioxidant Protection (CAP-e) assay; settings: per gram
Source text: (§1) Dihydroquercetin is a:far more powerful antioxidant than vitamins A, C and E, as indicated by its comparative USDA ranking of the Oxygen Radical Absorbance Capacity (ORAC) and supported by other additional studies such as Cell-based Antioxidant Protection (CAP-e) assay against peroxyl radical, which is used to test whether natural products contain antioxidants capable of entering into and protecting live cells from oxidative damage.
(§2) The majority of HAT-based assays apply a competitive reaction scheme, in which antioxidant and substrate compete for thermally generated peroxyl radicals through the decomposition of azo compounds. ORAC and CAP-e can also be applied as an assays for the inhibition of induced low-density lipoprotein oxidation and other oxygen radical absorbances. […]
(§3) Among all the HAT-based assays, ORAC and CAP-e adopted an AUC (area under curve) technique to quantify antioxidant capacity. […]
(§4) Therefore, the ORAC and CAP-e assays has been broadly applied in academics and the food and supplement industry as the method of choice to quantify antioxidant capacity. […] The ORAChydro value of our dihydroquercetin has been measured at is 3,890 micromole of Trolox equivalent per […] capsule or 28,000 micromole Trolox equivalent per gram. The CAP-e value of our dihydroquercetin has been measured at is 9.9 CAP-e units per gram.

[1] = test system: umbilical vein endothelial (HUVE) cells; settings: cited from earlier work
[2] = test system: human lung embryonic fibroblasts (TIG-1); settings: TIG-1 cells; cited from earlier work
[3] = ORAChydro (Oxygen Radical Absorbance Capacity) assay; type: physicochemical
Source text: as §1, §2, §3, §4

bacterial mutagenicity = bacterial mutagenicity tests, cited from earlier work
[4] = test system: 8-hydroxy-2′-deoxyguanosine; settings: Fenton reaction catalyzed by copper; cited from earlier work
[5] = clinical feedback, usually females; cited from earlier work

O=C1c2c(O)cc(O)cc2O[C@H](c2ccc(O)c(O)c2)[C@H]1O [Dihydroquercetin]
CAP-e value (peroxyl radical): 9.9 CAP-e units per gram | 50% lethal concentration [1]: > 200 µmol | 50% lethal concentration [2]: > 300 µmol | ORAChydro value ([3]; per 412.3 mg capsule): 3,890 micromole of Trolox equivalent per 412.3 mg capsule | ORAChydro value ([3]; per gram): 28,000 micromole Trolox equivalent per gram | times less mutagenic than quercetin (bacterial mutagenicity; relative to quercetin): 400 times | minimum mutagenic dose (bacterial mutagenicity): 1626 nmol | pro-oxidant activity [4]: did not present pro-oxidant activity

O=c1c(O)c(-c2ccc(O)c(O)c2)oc2cc(O)cc(O)c12 [quercetin, reference compound]
minimum mutagenic dose (bacterial mutagenicity): 4 nml

Larch Arabinogalactan
occasional reaction of bloating and flatulence, share of individuals [5]: less than three percent

catechin [reference compound]
pro-oxidant activity [4]: did not present pro-oxidant activity
